target: T1, C5a anaphylatoxin chemotactic receptor 1 (Homo sapiens) (UniProt P21730); test: Antagonist activity at of C5aR in human macrophages assessed as half life of residence time for maintaining reduction in C5a-induced macrophage response; assay type: functional
T1 sequence (whole entry): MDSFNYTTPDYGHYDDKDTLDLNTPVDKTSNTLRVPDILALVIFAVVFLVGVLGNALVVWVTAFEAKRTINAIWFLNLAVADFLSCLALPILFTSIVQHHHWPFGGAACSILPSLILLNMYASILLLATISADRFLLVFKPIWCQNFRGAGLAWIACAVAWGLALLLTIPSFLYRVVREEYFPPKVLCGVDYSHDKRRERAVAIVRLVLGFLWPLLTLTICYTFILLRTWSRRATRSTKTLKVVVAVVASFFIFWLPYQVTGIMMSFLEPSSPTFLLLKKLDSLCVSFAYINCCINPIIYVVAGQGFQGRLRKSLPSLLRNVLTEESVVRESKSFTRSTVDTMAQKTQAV

First: CC(=O)N[C@@H](Cc1ccccc1)C(=O)N[C@H]1CCCNC(=O)[C@H](CCCN=C(N)N)NC(=O)[C@H](Cc2c[nH]c3ccccc23)NC(=O)[C@@H](CC2CCCCC2)NC(=O)[C@@H]2CCCN2C1=O
Second: CCc1cccc(CC)c1-c1cc(OC(C)C)c2c(n1)CCCC2Nc1ccccc1CCO (stereo not drawn)
The T1/2 of the first is higher: 20 h for the first, 1 to 3 h for the second.

`COc1ccc2c(c1)C(C(=O)N(Cc1ccc(N(C)C)cc1)c1ccc(C(C)C)cc1)CCC2` (stereo not drawn) was tested, and the T1/2 was 1 to 3 h.
